Data taken from patent US20220387604A1, “SELECTIVE DUAL HISTONE DEACETYLASE 6/8 (HDAC6/8) DEGRADERS AND METHODS OF USE THEREOF” (DANA-FARBER CANCER INSTITUTE, INC., priority 2019, published 2022).

What was measured:
[1] = test system: HDAC6/8; assay: Quantitative proteomics of cellular protein abundance in Kelly cells: HDAC6/8; type: cell-based, human; conditions: for change of cellular HDAC6/8 protein levels (heat map FIG. 3): 1 μM, 5 hours, compared to DMSO control; for reduction in HDAC6/8 protein levels compared to DMSO treated cells: moderated t-test, scatter plots FIG. 2A-2C, 4A-4B
Description: Lysis buffer (8 M Urea, 50 mM NaCl, 50 mM 4-(2hydroxyethyl)-1-piperazineethanesulfonic acid (EPPS) pH 8.5, protease and phosphatase inhibitors from Roche®) were added to the cell pellets and homogenized by 20 passes through a 21 gauge (1.25 in. long) needle to achieve a cell lysate with a protein concentration between 1-4 mg mL^−1. A micro-BCA assay (Pierce™) was used to determine the final protein concentration in the cell lysate. 200 μg of protein for each sample were reduced and alkylated as described in Donovan et al., Elife 7:e38430 (2018).
Proteins were precipitated using methanol/chloroform. Four volumes of methanol were added to the cell lysate, followed by one volume of chloroform, and finally three volumes of water. The mixture was vortexed and centrifuged to separate the chloroform phase from the aqueous phase. The precipitated protein was washed with three volumes of methanol, centrifuged and the resulting washed precipitated protein was allowed to air dry. The precipitated protein was resuspended in 4 M Urea, 50 mM HEPES pH 7.4, followed by dilution to 1 M urea with the addition of 200 mM EPPS, pH 8. Proteins were first digested with LysC (1:50; enzyme:protein) for 12 hours at room temperature. The LysC digestion was diluted to 0.5 M Urea with 200 mM EPPS pH 8 followed by digestion with trypsin (1:50; enzyme:protein) for 6 hours at 37° C. Tandem mass tag (TMT) reagents (Thermo Fisher Scientific) were dissolved in anhydrous acetonitrile (ACN) according to manufacturer's instructions.
Anhydrous ACN was added to each peptide sample to a final concentration of 30% v/v, and labeling was induced with the addition of TMT reagent to each sample at a ratio of 1:4 peptide:TMT label. The 10-plex labeling reactions were performed for 1.5 hours at room temperature and the reaction quenched by the addition of hydroxylamine to a final concentration of 0.3% for 15 minutes at room temperature. The sample channels were combined at a 1:1:1:1:1:1:1:1:1:1:1 ratio, desalted using C18 solid phase extraction cartridges (Waters®) and analyzed by LC-MS for channel ratio comparison. Samples were then combined using the adjusted volumes determined in the channel ratio analysis and dried down in a speed vacuum. The combined sample was then resuspended in 1% formic acid, and acidified (pH 2-3) before being subjected to desalting with C18 SPE (Sep-Pak®, Waters®). Samples were then offline fractionated into 96 fractions by high pH reverse-phase HPLC (Agilent® LC1260) through an aeris peptide xb-c18 column (Phenomenex®) with mobile phase A containing 5% acetonitrile and 10 mM NH4HCO3 in LC-MS grade H2O, and mobile phase B containing 90% acetonitrile and 10 mM NH4HCO3 in LC-MS grade H2O (both pH 8.0). The 96 resulting fractions were then pooled in a non-continuous manner into 24 fractions and these fractions were used for subsequent mass spectrometry analysis.
Data were collected using an Orbitrap Fusion™ Lumos™ mass spectrometer (Thermo Fisher Scientific, San Jose, Calif., USA) coupled with a Proxeon EASY-nLC™ 1200 LC pump (Thermo Fisher Scientific). Peptides were separated on an EasySpray™ ES803 75 μm inner diameter microcapillary column (ThermoFisher Scientific).
Each analysis used an MS3-based TMT method as described in McAlister et al., Anal. Chem. 86(14):7150-7158 (2014). The data were acquired using a mass range of m/z 340-1350, resolution 120,000, automatic gain control (AGC) target 1×10^6, maximum injection time 100 ms, dynamic exclusion of 120 seconds for the peptide measurements in the Orbitrap Fusion™ Lumos™ mass spectrometer. Data dependent MS2 spectra were acquired in the ion trap with a normalized collision energy (NCE) set at 55%, AGC target set to 1.5×10^5 and a maximum injection time of 150 ms. […]

[2] = target: T1, full length human HDAC8-EGFP (Homo sapiens, UniProt Q9BY41); assay: HDAC8 reporter assay (HDAC8-EGFP with mCherry reporter); type: cell-based; conditions: 5 hour treatment, FIG. 6; hook effect at higher concentrations
T1 construct: Cells stably expressing the full length human HDAC8-EGFP with mCherry reporter; expressed in transfected cells; Cilantro2 vector (Addgene, 74450)
T1 sequence (Q9BY41 1-377): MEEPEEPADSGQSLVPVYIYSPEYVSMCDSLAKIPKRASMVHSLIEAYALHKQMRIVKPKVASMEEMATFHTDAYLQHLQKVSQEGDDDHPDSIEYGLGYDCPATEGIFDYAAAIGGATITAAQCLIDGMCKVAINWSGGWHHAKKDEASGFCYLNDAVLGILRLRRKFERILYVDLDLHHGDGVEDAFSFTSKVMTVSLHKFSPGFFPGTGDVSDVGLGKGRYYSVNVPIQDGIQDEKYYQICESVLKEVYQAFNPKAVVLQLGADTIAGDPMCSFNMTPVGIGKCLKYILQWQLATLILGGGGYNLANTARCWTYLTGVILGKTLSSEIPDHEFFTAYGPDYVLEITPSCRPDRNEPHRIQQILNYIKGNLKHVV
Description: Cells stably expressing the full length human HDAC8-EGFP with mCherry reporter in Cilantro2 vector (Addgene, 74450) were seeded at 30-50% confluency in 384-well plates with 50 μL FluoroBrite™ DMEM media (Thermo Fisher Scientific, A18967) containing 10% FBS per well a day before compound treatment. Compounds were dispensed using a D300e Digital Dispenser (HP), normalized to 0.5% DMSO, and incubated with cells for 5 hours. The assay plate was imaged immediately using an Acumen® High Content Imager (TTP Labtech) with 488 nm and 561 nm lasers in […] per well format. The resulting images were analyzed using CellProfiler™.
A series of image analysis steps (‘image analysis pipeline’) was constructed. First, the red and green channels were aligned and cropped to target the middle of each well (to avoid analysis of heavily clumped cells at the edges), and a background illumination function was calculated for both red and green channels of each well individually and subtracted to correct for illumination variations across the 384-well plate from various sources of error. An additional step was then applied to the green channel to suppress the analysis of large auto fluorescent artifacts and enhance the analysis of cell specific fluorescence by way of selecting for objects under a given size, 30 A.U., and with a given shape, speckles. mCherry-positive cells were then identified in the red channel filtering for objects between 8-60 pixels in diameter and using intensity to distinguish between clumped objects. The green channel was then segmented into GFP positive and negative areas and objects were labeled as GFP positive if at least 40% of it overlapped with a GFP positive area. The fraction of GFP-positive cells/mCherry-positive cells in each well was then calculated, and the green and red images were rescaled for visualization. The values for the concentrations that lead to a 50% degradation (DC50) were calculated using the nonlinear fit variable slope model in GraphPad Prism software.

| degradation of GFP tagged HDAC8 in the reporter cell lines [2] | SMILES | change of cellular HDAC6/8 protein levels (heat map FIG. 3) [1] | reduction in HDAC6/8 protein levels compared to DMSO treated cells [1] |
| --- | --- | --- | --- |
| degradation of GFP tagged HDAC8 | O=C(/C=C/c1ccc(CN(CCOCCNc2cccc3c2C(=O)N(C2CCC(=O)NC2=O)C3=O)CCc2c[nH]c3ccccc23)cc1)NO (stereo not drawn) [Compound 2, (E)-3-(4-(((2-(1H-indol-3-yl)ethyl)(2-(2-((2-(2,6-dioxopiperidin-3-yl)-1,3-dioxoisoindolin-4-yl)amino)ethoxy)ethyl)amino)methyl)phenyl)-N-hydroxyacrylamide] | induced down-regulation | significant reduction |
| degradation of GFP tagged HDAC8 | O=C(/C=C/c1ccc(CN(CCCCCNc2cccc3c2C(=O)N(C2CCC(=O)NC2=O)C3=O)CCc2c[nH]c3ccccc23)cc1)NO (stereo not drawn) [Compound 3, (E)-3-(4-(((2-(1H-indol-3-yl)ethyl)(5-((2-(2,6-dioxopiperidin-3-yl)-1,3-dioxoisoindolin-4-yl)amino)pentyl)amino)methyl)phenyl)-N-hydroxyacrylamide] | induced down-regulation | significant reduction |

| SMILES | degradation of GFP tagged HDAC8 in the reporter cell lines [2] | change of cellular HDAC6/8 protein levels (heat map FIG. 3) [1] | reduction in HDAC6/8 protein levels compared to DMSO treated cells [1] |
| --- | --- | --- | --- |
| O=C(/C=C/c1ccc(CN(CCOCCOCCNc2cccc3c2C(=O)N(C2CCC(=O)NC2=O)C3=O)CCc2c[nH]c3ccccc23)cc1)NO (stereo not drawn) [Compound 1, (E)-3-(4-(((2-(1H-indol-3-yl)ethyl)(2-(2-(2-((2-(2,6-dioxopiperidin-3-yl)-1,3-dioxoisoindolin-4-yl)amino)ethoxy)ethoxy)ethyl)amino)methyl)phenyl)-N-hydroxyacrylamide] | degradation of GFP tagged HDAC8 | induced down-regulation | significant reduction |
